Source: patent publication US20100221308A1, “ANTIMICROBIAL COMPOSITIONS AND USES THEREOF” (KANE BIOTECH INC., priority 2005, published 2010)
Converted amounts (≈) assume the structure as drawn. Where two headings read alike, the source gives them in different places.

How the values were obtained:
P. aeruginosa = experiment: MIC, broth microdilution assay; type: cell-based, Pseudomonas aeruginosa; conditions: agent alone, 24 h
S. thermophilus = experiment: MIC, broth microdilution assay; type: cell-based, Streptococcus thermophilus; conditions: agent alone, 24 h
S. aureus = experiment: MIC, broth microdilution assay; type: cell-based, Staphylococcus aureus; conditions: agent alone, 24 h
biofilm embedded E. coli = experiment: In vitro microplate assay, growth of biofilm embedded bacteria (CFU); type: cell-based; conditions: FIG. 1: 50 μg/ml PS, 12.5 μg/ml CHX; 24 hours
Protocol: (§1) In vitro microplate assays were performed to determine the enhanced effects of protamine sulfate and chlorhexidine salt combination on the growth of biofilm embedded biofilm forming catheter-associated bacteria such as E. coli, Pseudomonas aeruginosa and Staphylococcus epidermidis. Overnight culture of each bacterial strain grown in Luria-Bertani (LB) or Tryptic Soy Broth (TSB) was used as inoculum. Bacteria were grown in Colony Forming Antigen (CFA) medium (for gram-negative) or in TSB (for gram-positive) on a 12-well microplate in the absence and presence of each test compound (PS or CHX) separately and together (PS+CHX) at 12.5, 25, or 50 μg/ml. The plate was incubated at 37° C. for 24 hours. Media containing planktonic cells in each well were removed gently and rinsed with sterile water. A known volume of water was added to each well and sonicated for 30 seconds. The transfer of contents of each well into a sterile tube and vortexing for a minute was followed by 10-fold serial dilution and plating on agar plates using a spreader. After incubating the plates at 37° C. for 24 hours, the colonies forming units (CFU) were counted.

[1] = system: biofilm embedded Pseudomonas aeruginosa; experiment: as above; type: cell-based; conditions: FIG. 2: 25 μg/ml PS, 25 μg/ml CHX; 24 hours
Protocol: as §1

L. monocytogens = experiment: MIC, broth microdilution assay; type: cell-based, Listeria monocytogenes; conditions: agent alone, 24 h
[2] = system: biofilm embedded Staphylococcus epidermidis; experiment: In vitro microplate assay, growth of biofilm embedded bacteria (CFU); type: cell-based; conditions: FIG. 3: 12.5 μg/ml PS, 12.5 μg/ml CHX; 24 hours
Protocol: as §1, with “Bacteria were grown in Colony Forming Antigen (CFA) medium (for gram-negative) or in TSB (for gram-positive) on a 12-well microplate in the absence and presence of each test compound (PS or CHX) separately and together (PS+CHX) at 12.5, 25, or 50 μg/ml.” left out

E. coli = experiment: MIC, broth microdilution assay; type: cell-based; conditions: agent alone, 24 h
S. mutans UA 159 = experiment: MIC for oral bacteria, broth microdilution assay; type: cell-based; conditions: agent alone, 24 h
Protocol: (§2) The minimum inhibitory concentrations (MICs) of chlorhexidine (CHX) and protamine sulfate (PS) alone and CHX and PS combination for S. mutans, S. sobrinus and A. naeslundii were determined using a broth microdilution assay in 96-well microtiter plate as described previously (Amsterdam, D. 1996., In: V. Loman, Ed., “Antibiotics in laboratory medicine”, p. 52-111, Williams and Wilkins, Baltimore, Md.). S. mutans and S. sobrinus were grown overnight at 37° C. with 100 rpm shaking in THYE broth supplemented with 0.01% hog gastric mucin, and A. naeslundii was grown in TSB-YK broth, and diluted to approximately 10^5 CFU/ml. […] Plates were incubated at 37° C. for 24 h and were read at 600 nm using a microtiter plate reader (Labsystems, Multiskan Ascent, Helsinki, Finland).

A. naeslundii ATCC 12104 = experiment: MIC for oral bacteria, broth microdilution assay; type: cell-based; conditions: agent alone, 24 h
Protocol: as §2

S. sobrinus HNG 909S = experiment: MIC for oral bacteria, broth microdilution assay; type: cell-based; conditions: agent alone, 24 h
Protocol: as §2

B. cereus = experiment: MIC, broth microdilution assay; type: cell-based, Bacillus cereus; conditions: agent alone, 24 h
K. pneumoniae = experiment: MIC, broth microdilution assay; type: cell-based, Klebsiella pneumoniae; conditions: agent alone, 24 h
C. perfringens = experiment: microbe, parasite or virus in culture; type: cell-based, Clostridium perfringens; conditions: 24 h

## [H]/N=C(\N/C(=N/[H])NCCCCCCNC(=N)NC(=N)Nc1ccc(Cl)cc1)Nc1ccc(Cl)cc1 [CHX, chlorhexidine]
P. aeruginosa; Pseudomonas aeruginosa, read-out: MIC
  MIC: 12.5 µg/mL (≈ 24.7 µM)
S. thermophilus; Streptococcus thermophilus, read-out: MIC
  MIC: < 0.195 µg/mL
S. aureus; Staphylococcus aureus, read-out: MIC
  MIC: 0.781 µg/mL (≈ 1.55 µM)
Biofilm embedded E. coli
  inhibition of growth of biofilm embedded organism (CFU), in words: more effective than protamine sulfate
[1]
  inhibition of growth of biofilm embedded organism (CFU), in words: more effective than protamine sulfate
L. monocytogens; Listeria monocytogenes, read-out: MIC
  MIC: 3.12 µg/mL (≈ 6.18 µM)
[2]
  inhibition of growth of biofilm embedded organism (CFU), in words: more effective than protamine sulfate
E. coli; Escherichia coli, read-out: MIC
  MIC: 0.39 µg/mL (≈ 0.772 µM)
S. mutans UA 159; Streptococcus mutans, UA159, read-out: Minimum inhibitory concentration
  MIC: 6.25 µg/mL
A. naeslundii ATCC 12104; Actinomyces naeslundii, ATCC12104, read-out: Minimum inhibitory concentration
  MIC: 50 µg/mL
S. sobrinus HNG 909S; Streptococcus sobrinus, HNG909S, read-out: Minimum inhibitory concentration
  MIC: 1.56 µg/mL
B. cereus; Bacillus cereus, read-out: MIC
  MIC: 3.12 µg/mL (≈ 6.18 µM)
K. pneumoniae; Klebsiella pneumoniae, read-out: MIC
  MIC: 6.25 µg/mL (≈ 12.4 µM)
C. perfringens; Clostridium perfringens
  MIC: 1.56 µg/mL (≈ 3.09 µM)

## protamine sulfate [PS]
P. aeruginosa
  MIC: 200 µg/mL
S. thermophilus
  MIC: 200 µg/mL
S. aureus
  MIC: 200 µg/mL
L. monocytogens
  MIC: 200 µg/mL
E. coli
  MIC: >100 µg/mL
S. mutans UA 159
  Minimum inhibitory concentration: >200 µg/mL
A. naeslundii ATCC 12104
  Minimum inhibitory concentration: >200 µg/mL
S. sobrinus HNG 909S
  Minimum inhibitory concentration: >200 µg/mL
B. cereus
  MIC: >200 µg/mL
K. pneumoniae
  MIC: >200 µg/mL
C. perfringens; agent alone
  MIC: >200 µg/mL
